#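 Cells were grown in 96-well plates and exposed to each compound for 48 hours at five concentrations; endpoints were interpolated linearly between bracketing concentrations, or set to the highest concentration if not reached. TGI is the concentration that stops growth completely.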
# Tests used:
# Assay in all cases: NCI tumour cell line growth inhibition, 48 h
# 786-0 renal = system: 786-0 renal
# A498 renal = system: A498 renal
# A549 NSCLC = system: A549 NSCLC
# ACHN renal = system: ACHN renal
# BT-549 breast = system: BT-549 breast
# CAKI-1 renal = system: CAKI-1 renal
# CCRF-CEM leukemia = system: CCRF-CEM leukemia
# COLO 205 colon = system: COLO 205 colon
# DU-145 prostate = system: DU-145 prostate
# EKVX NSCLC = system: EKVX NSCLC
# HCC-2998 colon = system: HCC-2998 colon
# HCT-116 colon = system: HCT-116 colon
# HCT-15 colon = system: HCT-15 colon
# HL-60(TB) leukemia = system: HL-60(TB) leukemia
# HOP-62 NSCLC = system: HOP-62 NSCLC
# HOP-92 NSCLC = system: HOP-92 NSCLC
# HS 578T breast = system: HS 578T breast
# HT29 colon = system: HT29 colon
# IGROV1 ovarian = system: IGROV1 ovarian
# K-562 leukemia = system: K-562 leukemia
# KM12 colon = system: KM12 colon
# LOX IMVI melanoma = system: LOX IMVI melanoma
# M14 melanoma = system: M14 melanoma
# MALME-3M melanoma = system: MALME-3M melanoma
# MCF7 breast = system: MCF7 breast
# MDA-MB-231 breast = system: MDA-MB-231 breast
# MDA-MB-435 = system: MDA-MB-435
# MDA-N = system: MDA-N
# NCI-H226 lung = system: NCI-H226 lung
# NCI-H23 lung = system: NCI-H23 lung
# NCI-H460 lung = system: NCI-H460 lung
# NCI-H522 lung = system: NCI-H522 lung
# NCI/ADR-RES ovarian = system: NCI/ADR-RES ovarian
# OVCAR-3 ovarian = system: OVCAR-3 ovarian
# OVCAR-4 ovarian = system: OVCAR-4 ovarian
# OVCAR-5 ovarian = system: OVCAR-5 ovarian
# OVCAR-8 ovarian = system: OVCAR-8 ovarian
# PC-3 prostate = system: PC-3 prostate
# RPMI-8226 leukemia = system: RPMI-8226 leukemia
# RXF 393 renal = system: RXF 393 renal
# SF-268 CNS = system: SF-268 CNS
# SF-295 CNS = system: SF-295 CNS
# SK-MEL-2 melanoma = system: SK-MEL-2 melanoma
# SK-MEL-28 melanoma = system: SK-MEL-28 melanoma
# SK-MEL-5 melanoma = system: SK-MEL-5 melanoma
# SK-OV-3 ovarian = system: SK-OV-3 ovarian
# SN12C renal = system: SN12C renal
# SNB-19 CNS = system: SNB-19 CNS
# SNB-75 CNS = system: SNB-75 CNS
# SR leukemia = system: SR leukemia
# SW-620 colon = system: SW-620 colon
# T-47D breast = system: T-47D breast
# TK-10 renal = system: TK-10 renal
# U251 CNS = system: U251 CNS
# UACC-257 melanoma = system: UACC-257 melanoma
# UACC-62 melanoma = system: UACC-62 melanoma
# UO-31 renal = system: UO-31 renal
# MOLT-4 leukemia = system: MOLT-4 leukemia
# SF-539 CNS = system: SF-539 CNS
smiles,measurement,setting,value
CC(C)Cn1cnc2c(SCc3ccccn3)nc(N)nc21,TGI,786-0 renal,> 100 µM
same,TGI,A498 renal,> 100 µM
same,TGI,A549 NSCLC,> 100 µM
same,TGI,ACHN renal,> 100 µM
same,TGI,BT-549 breast,> 100 µM
same,TGI,CAKI-1 renal,> 100 µM
same,TGI,CCRF-CEM leukemia,> 100 µM
same,TGI,COLO 205 colon,> 100 µM
same,TGI,DU-145 prostate,> 100 µM
same,TGI,EKVX NSCLC,> 100 µM
same,TGI,HCC-2998 colon,> 100 µM
same,TGI,HCT-116 colon,> 100 µM
same,TGI,HCT-15 colon,> 100 µM
same,TGI,HL-60(TB) leukemia,> 100 µM
same,TGI,HOP-62 NSCLC,> 100 µM
same,TGI,HOP-92 NSCLC,> 100 µM
same,TGI,HS 578T breast,> 100 µM
same,TGI,HT29 colon,> 100 µM
same,TGI,IGROV1 ovarian,> 100 µM
same,TGI,K-562 leukemia,> 100 µM
same,TGI,KM12 colon,> 100 µM
same,TGI,LOX IMVI melanoma,> 100 µM
same,TGI,M14 melanoma,> 100 µM
same,TGI,MALME-3M melanoma,> 100 µM
same,TGI,MCF7 breast,> 100 µM
same,TGI,MDA-MB-231 breast,> 100 µM
same,TGI,MDA-MB-435,> 100 µM
same,TGI,MDA-N,> 100 µM
same,TGI,NCI-H226 lung,> 100 µM
same,TGI,NCI-H23 lung,> 100 µM
same,TGI,NCI-H460 lung,> 100 µM
same,TGI,NCI-H522 lung,> 100 µM
same,TGI,NCI/ADR-RES ovarian,> 100 µM
same,TGI,OVCAR-3 ovarian,> 100 µM
same,TGI,OVCAR-4 ovarian,> 100 µM
same,TGI,OVCAR-5 ovarian,> 100 µM
same,TGI,OVCAR-8 ovarian,> 100 µM
same,TGI,PC-3 prostate,> 100 µM
same,TGI,RPMI-8226 leukemia,> 100 µM
same,TGI,RXF 393 renal,> 100 µM
same,TGI,SF-268 CNS,> 100 µM
same,TGI,SF-295 CNS,> 100 µM
same,TGI,SK-MEL-2 melanoma,> 100 µM
same,TGI,SK-MEL-28 melanoma,> 100 µM
same,TGI,SK-MEL-5 melanoma,> 100 µM
same,TGI,SK-OV-3 ovarian,> 100 µM
same,TGI,SN12C renal,> 100 µM
same,TGI,SNB-19 CNS,> 100 µM
same,TGI,SNB-75 CNS,> 100 µM
same,TGI,SR leukemia,> 100 µM
same,TGI,SW-620 colon,> 100 µM
same,TGI,T-47D breast,> 100 µM
same,TGI,TK-10 renal,> 100 µM
same,TGI,U251 CNS,> 100 µM
same,TGI,UACC-257 melanoma,> 100 µM
same,TGI,UACC-62 melanoma,> 100 µM
same,TGI,UO-31 renal,> 100 µM
Cc1ccc(NCc2nnc3c(-c4ccccc4)nc4ccccc4n23)cc1,TGI,786-0 renal,> 100 µM
same,TGI,A498 renal,> 100 µM
same,TGI,A549 NSCLC,> 100 µM
same,TGI,ACHN renal,> 100 µM
same,TGI,BT-549 breast,> 100 µM
same,TGI,CAKI-1 renal,> 100 µM
same,TGI,CCRF-CEM leukemia,> 100 µM
same,TGI,COLO 205 colon,86.6 µM
same,TGI,DU-145 prostate,> 100 µM
same,TGI,EKVX NSCLC,84.1 µM
same,TGI,HCC-2998 colon,> 100 µM
same,TGI,HCT-116 colon,> 100 µM
same,TGI,HCT-15 colon,> 100 µM
same,TGI,HL-60(TB) leukemia,68.3 µM
same,TGI,HOP-62 NSCLC,> 100 µM
same,TGI,HOP-92 NSCLC,50 µM
same,TGI,HS 578T breast,> 100 µM
same,TGI,HT29 colon,> 100 µM
same,TGI,IGROV1 ovarian,> 100 µM
same,TGI,K-562 leukemia,> 100 µM
same,TGI,KM12 colon,> 100 µM
same,TGI,LOX IMVI melanoma,71.1 µM
same,TGI,M14 melanoma,> 100 µM
same,TGI,MALME-3M melanoma,> 100 µM
same,TGI,MCF7 breast,> 100 µM
same,TGI,MDA-MB-231 breast,> 100 µM
same,TGI,MDA-MB-435,> 100 µM
same,TGI,MDA-N,> 100 µM
same,TGI,MOLT-4 leukemia,> 100 µM
same,TGI,NCI-H226 lung,> 100 µM
same,TGI,NCI-H460 lung,> 100 µM
same,TGI,NCI-H522 lung,> 100 µM
same,TGI,NCI/ADR-RES ovarian,> 100 µM
same,TGI,OVCAR-3 ovarian,> 100 µM
same,TGI,OVCAR-4 ovarian,> 100 µM
same,TGI,OVCAR-5 ovarian,> 100 µM
same,TGI,OVCAR-8 ovarian,> 100 µM
same,TGI,PC-3 prostate,52.9 µM
same,TGI,RXF 393 renal,> 100 µM
same,TGI,SF-268 CNS,> 100 µM
same,TGI,SF-295 CNS,> 100 µM
same,TGI,SF-539 CNS,> 100 µM
same,TGI,SK-MEL-2 melanoma,65.5 µM
same,TGI,SK-MEL-28 melanoma,> 100 µM
same,TGI,SK-MEL-5 melanoma,30.4 µM
same,TGI,SK-OV-3 ovarian,> 100 µM
same,TGI,SN12C renal,> 100 µM
same,TGI,SNB-19 CNS,> 100 µM
same,TGI,SR leukemia,> 100 µM
same,TGI,SW-620 colon,> 100 µM
same,TGI,T-47D breast,9.62 µM
same,TGI,TK-10 renal,> 100 µM
same,TGI,U251 CNS,> 100 µM
same,TGI,UACC-257 melanoma,> 100 µM
same,TGI,UACC-62 melanoma,> 100 µM

# From PubChem BioAssay (NCI)
